Laboratory results published in patent US20100204149A1, “USE OF OCTREOTIDE AS A THERAPEUTIC AGENT” (priority 2007, published 2010).

Tests used:
CEM-SS cells = assay: Cytotoxicity (MTS cell viability) in HIV-1 assay; conditions: peptide 10 micrograms per ml, MTS
HIV-1IIIB = assay: HIV-1 antiviral assay (CPE reduction) in CEM-SS cells; conditions: peptide 10 micrograms per ml; 6 days post-infection; MTS
HCMV strain AD169 = assay: HCMV plaque reduction assay in MRC-5 cells; type: cell-based; conditions: peptide 10 micrograms per ml, 7-10 days
Excerpt: Ganciclovir was used as positive control.

[1] = system: MRC-5 cells (human embryonal lung fibroblasts); assay: Cytotoxicity testing in MRC-5 cells (CellTiter 96); type: cell-based; conditions: 6 days
Experimental: For cytotoxicity testing, MRC-5 cells were seeded at 2,500 cells/well in 96 well plates using growth medium. […] The following day, peptide was added and tested in duplicates. After a 6 days incubation period, cell viability was measured using CellTiter 96 Solution (Promega). Plates were incubated for additional 4 hours at 37° C.

Compound | % Cell viability (CEM-SS cells) [%] | % CPE reduction in HIV-1 infected CEM-SS cells (HIV-1IIIB) [%] | % plaque reduction (HCMV strain AD169) [%] | % Cell viability [1] [%]
Cc1cn([C@H]2C[C@H](N=[N+]=[N-])[C@@H](CO)O2)c(=O)[nH]c1=O [AZT, reference compound] | 97 | 99 | – | –
Nc1nc(O)c2ncn(COC(CO)CO)c2n1 [Ganciclovir, reference compound] | – | – | 100 | 100
CC(C)(C)NC(=O)[C@@H]1CN(Cc2cccnc2)CCN1C[C@@H](O)C[C@@H](Cc1ccccc1)C(=O)N[C@H]1c2ccccc2C[C@H]1O [Indinavir] | – | 100 | – | –
